The text below walks through data of patent publication US12564572B2, “Topical ocular delivery of cromakalim” (QLARIS BIO, INC., priority 2022, dated 2026).

For data set [1], the system named is patients with primary open-angle glaucoma. The conditions noted are these: cited from earlier work.
The subject of data set [2] is KATP channels. The settings on record: in the presence of ATP; cited from earlier work.
Data set [3] concerns rabbit eyes. The settings on record: 0.5% cromakalim in 0.02 M phosphate buffer; cited from earlier work.
The test system of data set [4] is Dutch Belted rabbits. Nature of the data set: 28 day repeated dose toxicology and toxicokinetic study by ocular topical administration in Dutch Belted rabbits (Example 12). The settings on record: rabbit, in vivo, topical or ocular; for Tmax: male. The method, then:
Plasma concentrations of levcromakalim were evaluated in DB rabbits after twice a day (BID) oculus uterque (OU, both eyes) topical ophthalmic (T.O.) administration of formulation 3d for 28 days at dose levels of 0, 0.012, 0.03, and 0.06 mg/eye/dose.
Plasma concentrations of levcromakalim were evaluated in DB rabbits after BID OU T.O. administration of three concentrations of formulation 3d at dose levels of 0, 0.012, 0.03, and 0.06 mg/eye/dose (0, 0.024, 0.06, and 0.12 mg/eye/day respectively or 0.030% [1.0 mM], 0.075% [2.5 mM], or 0.15% [5 mM] respectively) for 28 days. Plasma was collected from 3 animals/dose group at pre-dose, 0.5, 1, 2, 3, 4, 6, and 12 hours post-first dose on Days 1 and 28.

In the case of `CC1(C)Oc2ccc(C#N)cc2[C@@H](N2CCCC2=O)[C@@H]1OP(=O)(O)O` [QLS-101], in data set [1] (in vivo), the “Hyperemia (eye redness)” value is recorded as “no evidence of hyperemia”. The Efficacy result in data set [1] (patients with primary open-angle glaucoma) is “positive efficacy signal”.

In the case of `CC1(C)Oc2ccc(C#N)cc2C(N2CCCC2=O)C1O` (centres unmarked) [cromakalim], the “Increase of open-state probability (Popen) of single KATP channels” value in data set [2] is reported as “more than 9 fold”. For the same compound, the “Effect on IOP after topical administration” value in data set [3] is “tended to increase IOP”.

A word on the Tmax: it is the time at which the peak concentration occurs. As for `CC1(C)Oc2ccc(C#N)cc2[C@@H](N2CCCC2=O)[C@@H]1O` [levcromakalim], the AUCtlast in data set [4] (female, 0.03 mg) was determined as 3.99 ng·h/mL. The compound further yielded a t1/2 in data set [4] (female, 0.06 mg) of 1.77. For the same compound, the Tmax in data set [4] (0.012 mg) is 70.2 min; in data set [4] (0.06 mg), 42 min.
